As a reminder, the EC50 is the midpoint of the concentration-response curve.

“Also recorded” adds a separate entry of the source. Read-outs that look alike come from different tables or passages of the source.

What all share (assay type): biochemical
For one assay, the target named is T1, zS1P1 (Danio rerio, UniProt Q9DDK4).
T1 construct: expressed in transfected cells; host or cells: rat hepatoma RH-7777
T1 sequence (Q9DDK4 1-362): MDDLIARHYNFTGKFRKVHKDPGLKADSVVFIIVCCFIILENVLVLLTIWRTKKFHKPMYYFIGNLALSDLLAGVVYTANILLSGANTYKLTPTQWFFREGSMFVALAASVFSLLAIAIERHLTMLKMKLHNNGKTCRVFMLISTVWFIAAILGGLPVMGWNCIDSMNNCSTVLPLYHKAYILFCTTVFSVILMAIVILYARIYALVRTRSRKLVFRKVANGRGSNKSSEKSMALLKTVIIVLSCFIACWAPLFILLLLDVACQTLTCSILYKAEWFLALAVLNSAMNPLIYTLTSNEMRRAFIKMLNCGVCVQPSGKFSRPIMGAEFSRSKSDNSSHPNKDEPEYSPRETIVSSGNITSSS
Briefly: [γ-35S]GTP binding, zebrafish S1P1 overexpressed in rat RH-7777 cells. The settings on record: GTPγS binding, zebrafish S1P1 in rat RH-7777. The protocol: (§1) After incubating for 30 min at 30° C., bound radionuclide was separated from free by filtration through Whatman GF/C paper using a Brandel Cell Harvester (Gaithersburg, Md.).
Rat hepatoma RH7777 cell monolayers were transfected with human or mouse S1P5/pCR3.1 DNA using the calcium phosphate precipitate method, and clonal populations expressing the neomycin phosphotransferase gene were selected by addition of Ge-neticin (G418) to the culture medium. The RH7777 cells were grown in monolayers at 37° C. in a 5%CO2/95% air atmosphere in growth medium consisting of 90% MEM, 10% fetal bovine serum, 2 mM glutamine, and 1 mM sodium pyruvate.
(§2) Assay of cAMP accumulation was performed as described previously (See Im et al., J. Biol. Chem. 275, 14281–14286 (2000), the disclosure of which is incorporated herein). Assays were conducted on populations of 5×10^5 cells stimulated with 1 uM forskolin in the presence of the phosphodiesterase inhibitor […] (IBMX, 1 mM) for 15 min. cAMP was measured by automated radioimmunoassay. The GTPγS studies were performed using zebrafish S1P1 overexpressed rat RH-7777 and human hS1P1, hS1P2, hS1P3 and hS1P5 overexpressed human HEK293 cells.

The next assay deals with T2, hS1P1 (Homo sapiens, UniProt P21453).
T2 construct: expressed in transfected cells; host or cells: HEK293T
Briefly: [γ-35S]GTP binding to HEK293T cell membranes, hS1P1. To be noted: GTPγS binding; for EC50: read-out: EC50 Values (nM) for S1P Analogues at Recombinant S1P Receptors, hS1P1, HEK293. The protocol: (§3) Human or mouse S1P5 DNA was mixed with an equal amount of DNA encoding a rat Gi2R protein as well as DNAs encoding cow β1 and γ2 proteins and used to transfect monolayers of HEK293T cells using the calcium phosphate precipitate method. After 60 h, cells were harvested, and microsomes were prepared, aliquoted, and stored at −70° C. until use.
as §1, §2
(§4) An additional series of compounds was tested using the GTPγS binding assay described in Example 2 and in Im et al., J. Biol. Chem. 275, 14281–14286 (2000), the disclosure of which is incorporated herein).
(Binding of GTPγS marks nucleotide exchange on a G protein.)

For the next assay, the target named is T3, hS1P3 (Homo sapiens, UniProt Q99500).
T3 construct: expressed in transfected cells; host or cells: HEK293T
The assay is described as follows: [γ-35S]GTP binding to HEK293T cell membranes, hS1P3. The settings on record: GTPγS binding; for EC50: read-out: EC50 Values (nM) for S1P Analogues at Recombinant S1P Receptors, hS1P3, HEK293; for activity at the S1P3 receptor (inverse agonism/antagonism or agonism): Example 3 series. The protocol:
as §3, §1, §2, §4

The target in another assay is T4, mS1P5 (Mus musculus, UniProt Q91X56).
T4 construct: expressed in transfected cells; host or cells: HEK293T
Briefly: [γ-35S]GTP binding to HEK293T cell membranes, mS1P5. The settings on record: GTPγS binding. The protocol: as §3, §1, §2

For another assay, the target named is T5, hS1P2 (Homo sapiens, UniProt O95136).
T5 construct: expressed in transfected cells; host or cells: HEK293T
Briefly: [γ-35S]GTP binding to HEK293T cell membranes, hS1P2. The settings on record: GTPγS binding; for EC50: read-out: EC50 Values (nM) for S1P Analogues at Recombinant S1P Receptors, hS1P2, HEK293; for activity at the S1P2 receptor: Example 3 series. The protocol: as §3, §1, §2, §4

The next assay deals with T6, hS1P5 (Homo sapiens, UniProt Q9H228).
T6 construct: expressed in transfected cells; host or cells: HEK293T
The assay is described as follows: [γ-35S]GTP binding to HEK293T cell membranes, hS1P5. To be noted: read-out: EC50 Values (nM) for S1P Analogues at Recombinant S1P Receptors, hS1P5; GTPγS binding; HEK293. The protocol:
as §3, §1, §2, §4

In the next assay the target is T7, hS1P4 (Homo sapiens, UniProt O95977).
T7 construct: expressed in transfected cells; host or cells: HEK293T
T7 sequence (O95977 1-384): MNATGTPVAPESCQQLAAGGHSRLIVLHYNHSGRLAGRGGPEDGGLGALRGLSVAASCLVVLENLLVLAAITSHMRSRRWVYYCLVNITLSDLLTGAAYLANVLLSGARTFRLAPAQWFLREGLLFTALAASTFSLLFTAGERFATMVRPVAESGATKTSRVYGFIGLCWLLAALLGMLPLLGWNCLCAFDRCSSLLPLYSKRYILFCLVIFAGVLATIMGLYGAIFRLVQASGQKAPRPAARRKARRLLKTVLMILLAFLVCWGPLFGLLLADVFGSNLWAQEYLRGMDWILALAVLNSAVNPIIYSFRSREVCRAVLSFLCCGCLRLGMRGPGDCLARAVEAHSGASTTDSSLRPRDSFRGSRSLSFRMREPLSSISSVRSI
The assay is described as follows: [γ-35S]GTP binding to HEK293T cell membranes, hS1P4. The settings on record: GTPγS binding, primary alcohols. The protocol:
as §1, §4

The subject of another assay is S1P receptors. The assay is described as follows: [γ-35S]GTP binding assay, statements across the recombinant S1P receptors tested. To be noted: GTPγS binding. The protocol:
as §3, §1, §2, §4

Where [1] appears, read: read-out: EC50 Values (nM) for S1P Analogues at Recombinant S1P Receptors, zS1P1.
Setting [2] is: read-out: EC50 Values (nM) for S1P Analogues at Recombinant S1P Receptors, mS1P5.

T3 sequence (Q99500 whole entry): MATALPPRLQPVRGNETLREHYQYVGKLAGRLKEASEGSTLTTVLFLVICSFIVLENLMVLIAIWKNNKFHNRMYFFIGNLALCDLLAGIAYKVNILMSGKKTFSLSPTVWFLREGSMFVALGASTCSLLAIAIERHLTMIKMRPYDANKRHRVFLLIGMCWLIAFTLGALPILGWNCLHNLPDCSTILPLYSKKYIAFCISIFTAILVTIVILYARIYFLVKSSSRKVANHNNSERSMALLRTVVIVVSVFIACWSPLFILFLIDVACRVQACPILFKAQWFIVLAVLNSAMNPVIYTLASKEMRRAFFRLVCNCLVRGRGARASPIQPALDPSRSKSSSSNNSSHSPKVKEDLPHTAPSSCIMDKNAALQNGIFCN
T2 sequence (P21453 whole entry): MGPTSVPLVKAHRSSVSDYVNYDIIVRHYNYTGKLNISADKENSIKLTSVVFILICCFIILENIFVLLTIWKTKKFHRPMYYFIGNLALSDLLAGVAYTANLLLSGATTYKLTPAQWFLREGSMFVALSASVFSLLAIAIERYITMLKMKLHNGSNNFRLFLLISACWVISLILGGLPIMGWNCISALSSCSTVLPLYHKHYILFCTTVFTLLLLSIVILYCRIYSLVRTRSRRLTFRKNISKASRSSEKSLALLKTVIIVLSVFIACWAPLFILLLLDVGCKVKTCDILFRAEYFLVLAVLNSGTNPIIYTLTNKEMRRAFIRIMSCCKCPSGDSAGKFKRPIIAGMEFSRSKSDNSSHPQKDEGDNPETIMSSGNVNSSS
T6 sequence (Q9H228 whole entry): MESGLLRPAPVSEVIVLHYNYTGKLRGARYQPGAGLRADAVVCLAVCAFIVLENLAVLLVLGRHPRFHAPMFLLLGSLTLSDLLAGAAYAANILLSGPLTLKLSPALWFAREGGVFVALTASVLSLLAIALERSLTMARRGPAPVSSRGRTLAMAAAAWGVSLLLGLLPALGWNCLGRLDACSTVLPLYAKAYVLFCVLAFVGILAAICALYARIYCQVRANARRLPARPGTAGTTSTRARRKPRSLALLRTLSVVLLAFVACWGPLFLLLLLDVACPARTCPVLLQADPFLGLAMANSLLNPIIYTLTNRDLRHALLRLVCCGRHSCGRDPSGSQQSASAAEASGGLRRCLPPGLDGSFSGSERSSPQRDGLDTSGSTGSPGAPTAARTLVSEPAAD
T5 sequence (O95136 whole entry): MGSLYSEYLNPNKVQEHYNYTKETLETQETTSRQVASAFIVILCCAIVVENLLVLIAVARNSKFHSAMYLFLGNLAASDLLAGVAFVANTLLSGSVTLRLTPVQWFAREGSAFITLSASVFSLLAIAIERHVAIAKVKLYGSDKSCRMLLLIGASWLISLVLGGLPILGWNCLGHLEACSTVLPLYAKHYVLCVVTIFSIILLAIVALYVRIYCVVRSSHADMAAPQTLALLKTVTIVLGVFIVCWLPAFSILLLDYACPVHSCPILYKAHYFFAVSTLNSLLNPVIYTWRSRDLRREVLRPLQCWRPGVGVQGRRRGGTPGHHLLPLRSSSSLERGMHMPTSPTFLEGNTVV
T4 sequence (Q91X56 whole entry): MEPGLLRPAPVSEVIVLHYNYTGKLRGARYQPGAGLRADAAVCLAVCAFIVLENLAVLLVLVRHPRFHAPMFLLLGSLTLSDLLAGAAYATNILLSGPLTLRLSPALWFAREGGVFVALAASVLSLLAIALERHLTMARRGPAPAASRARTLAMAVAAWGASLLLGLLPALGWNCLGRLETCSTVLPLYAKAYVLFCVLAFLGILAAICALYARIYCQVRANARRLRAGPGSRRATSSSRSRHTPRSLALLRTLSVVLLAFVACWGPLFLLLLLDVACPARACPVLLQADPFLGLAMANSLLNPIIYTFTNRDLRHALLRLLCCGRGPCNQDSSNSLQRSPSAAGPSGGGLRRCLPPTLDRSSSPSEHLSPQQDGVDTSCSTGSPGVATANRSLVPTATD

`CCCCCCCCCCCCC/C=C/[C@@H](O)[C@@H](N)COP(=O)(O)O` [Compound S1P, Sphingosine-1-phosphate, reference compound]: the concentration for a half-maximal effect (EC50) amounted to 54.6 nM on zS1P1, 0.9 nM at hS1P1, 1.1 nM on hS1P3 and 12.7 nM on mS1P5.

As to `CCCCCCCCCCCCNC(=O)[C@@H](N)COP(=O)(O)O` [VPC22041], the concentration for a half-maximal effect (EC50) was 2050 nM on zS1P1; 598 nM at hS1P1; 845 nM on hS1P3; over 5000 nM on mS1P5; 973 nM on hS1P2; 646 nM on hS1P5.

Consider `CCCCCCCCCCCCCCNC(=O)[C@@H](N)COP(=O)(O)O` [VPC22051], for which the half-maximal effective concentration (EC50) at zS1P1 (setting [1]) is over 5000 nM; at hS1P1 it was 322 nM; at hS1P3 it was 602 nM; on mS1P5 (setting [2]), over 5000 nM; at hS1P2 it was 2760 nM; on hS1P5, over 5000 nM.

Take `CCCCCCCCCCCCCCOC(=O)[C@@H](N)COP(=O)(O)O.O=C(O)C(F)(F)F` [VPC22053]: the EC50 at zS1P1 (setting [1]) was over 5000 nM; at hS1P1, 397 nM; at hS1P3 it was 862 nM; on mS1P5 (setting [2]), 2010 nM; at hS1P2, 2680 nM; at hS1P5, 1610 nM. For the same compound, the “loss of potency relative to enantiomer VPC22135 at S1P1 receptor” value at hS1P1 is recorded as “more than 1 log order”. The “loss of potency relative to enantiomer VPC22135 at S1P3 receptor” value on hS1P3 was “more than 1 log order”.

For `CCCCCCCCCCCCCCCCNC(=O)[C@@H](N)COP(=O)(O)O` [VPC22063], the concentration for a half-maximal effect (EC50) is over 5000 nM at zS1P1; 1800 nM on hS1P1; 879 nM on hS1P3; 1330 nM on mS1P5; 1220 nM at hS1P5.

Take `CCCCCCCCCCCCCCNC(=O)[C@H](N)COP(=O)(O)O` [VPC22135]: the EC50 was 1620 nM on zS1P1; 12.7 nM at hS1P1; 50.8 nM on hS1P3; 1820 nM on mS1P5; 2110 nM on hS1P2. Moreover, on hS1P1, the “potency relative to S1P at human S1P1 receptor” value is listed as “approached the potency of S1P”. For the same compound, the “potency relative to S1P at human S1P3 receptor” value at hS1P3 is on record as “approached the potency of S1P”.

`CCCCCCCCc1cccc(NC(=O)[C@H](N)COP(=O)(O)O)c1` [VPC23019]: at hS1P1 (competition with S1P), the “activity at S1P1 (antagonism)” value is recorded as “antagonism”. Further, at hS1P3, the “activity at the S1P3 receptor (inverse agonism/antagonism or agonism)” value is listed as “inverse agonists”. For the same compound, the “activity at the S1P2 receptor” value at hS1P2 was “failed to show significant activity; also recorded: inactive”.

Turning to `CCCCCCc1cccc(NC(=O)[C@H](N)COP(=O)(O)O)c1.O=C(O)C(F)(F)F` [VPC23031], on hS1P3, the “activity at the S1P3 receptor (inverse agonism/antagonism or agonism)” value is “inverse agonists”. Also, the “activity at the S1P2 receptor” value at hS1P2 is “failed to show significant activity; also recorded: inactive”.

Regarding `CCCCCCCCCCc1cccc(NC(=O)[C@H](N)CO)c1.O=C(O)C(F)(F)F` [VPC23065], the “agonist activity at the S1P4 receptor” value at hS1P4 was “good agonist activity”. Besides, the “activity at the S1P2 receptor” value on hS1P2 is “failed to show significant activity; also recorded: inactive”. In addition, in the assay with S1P receptors, the “agonist activity at S1P receptors” value is reported as “significant agonist activity”.

Consider `CCCCCCCCCCc1cccc(NC(=O)[C@H](N)COP(=O)(O)O)c1.O=C(O)C(F)(F)F` [VPC23069], for which, on hS1P3, the “activity at the S1P3 receptor (inverse agonism/antagonism or agonism)” value was “agonism”. In addition, on hS1P2, the “activity at the S1P2 receptor” value was “failed to show significant activity; also recorded: inactive”.

`CCCCCCCCCc1cccc(NC(=O)[C@H](N)CO)c1.O=C(O)C(F)(F)F` [VPC23075]: at hS1P4, the “agonist activity at the S1P4 receptor” value is reported as “good agonist activity”. Moreover, on hS1P2, the “activity at the S1P2 receptor” value is “failed to show significant activity; also recorded: inactive”. For the same compound, in the assay with S1P receptors, the “agonist activity at S1P receptors” value is “significant agonist activity”.

In the case of `CCCCCCCCCc1cccc(NC(=O)[C@H](N)COP(=O)(O)O)c1.O=C(O)C(F)(F)F` [VPC23079], the “activity at the S1P3 receptor (inverse agonism/antagonism or agonism)” value at hS1P3 is “agonism”. For the same compound, on hS1P2, the “activity at the S1P2 receptor” value is “failed to show significant activity; also recorded: inactive”.

Consider `CCCCCCCCc1ccccc1NC(=O)[C@H](N)CO.O=C(O)C(F)(F)F` [VPC23087], for which, at hS1P4, the “agonist activity at the S1P4 receptor” value is “good agonist activity”. The “activity at the S1P2 receptor” value at hS1P2 was “failed to show significant activity; also recorded: inactive”. In addition, the “agonist activity at S1P receptors” value in the assay on S1P receptors is “significant agonist activity”.

For the compound `CCCCCCCCc1ccccc1NC(=O)[C@H](N)COP(=O)(O)O` [VPC23089], the “activity at the S1P3 receptor (inverse agonism/antagonism or agonism)” value at hS1P3 is listed as “inverse agonists”. In addition, on hS1P2, the “activity at the S1P2 receptor” value is “failed to show significant activity; also recorded: inactive”.

The values are drawn from patent US7064217B2 (University of Virginia Patent Foundation, priority 2001, dated 2006).
